Results taken from patent publication US20190307818A1, “NOVEL ANTIMICROBIAL COMPOSITIONS AND METHODS OF USE” (priority 2016, published 2019).

How the values were obtained:
[1] = system: Wild-type P. aeruginosa pyocyanin production; details: previously shown; cited from earlier work
[2] = system: P. aeruginosa PA14 ΔlasI ΔrhII CRISPR adaptation; experiment: CRISPR adaptation (new spacer integration by PCR); assay type: cell-based; details: ΔlasI ΔrhII strain; AIs 2 μM 3-O—C12-HSL+10 μM C4-HSL given together; Baicalein 100 μM with AIs; vs DMSO
Protocol: FIG. 3. QS inhibitors block CRISPR adaptation and disable QS-mediated bacterial immunity. A P. aeruginosa PA14 ΔlasI ΔrhII QS deficient strain was transformed with foreign DNA (e.g., a CRISPR-targeted plasmid). A single colony from the transformation was re-streaked on selective media containing either DMSO (as a control), AIs (2 μM 3-O—C12-HSL+10 μM C4-HSL), or AIs and a QS inhibitor (2 μM 3-O—C12-HSL+10 μM C4-HSL+100 μM Baicalein). Single colonies were tested for integration of new inserted spacers (conferring immunity) against the CRISPR-targeted plasmid. In particular, PCR primers were designed to amplify specific genomic regions into which spacers were inserted. Primers complementary to the region upstream of the CRISPR region and to the second spacer region were designed, and PCR amplification was utilized to test for the presence of the newly inserted spacer (a process referred to as adaptation).
A P. aeruginosa PA14 ΔlasI ΔrhII QS deficient strain was transformed with foreign DNA (e.g., a CRISPR-targeted plasmid such as pCR2SP1, as described above). A single colony from the transformation was re-streaked on selective medium, e.g., LB medium containing 50 μg/ml gentamicin and either DMSO (as a control), AIs (2 μM 3-O—C12-HSL+10 μM C4-HSL), or both AIs and a QS inhibitor (2 μM 3-O—C12-HSL+[…] C4-HSL+100 μM Baicalein QS inhibitor) and incubated at 37° C. O/N. Single colonies were tested for integration of new immunity spacers against the CRISPR-targeted plasmid by PCR using iProof High-Fidelity DNA Polymerase (Bio-Rad) and primers CR2SP check F+R upstream of the CRISPR2 region and in the second spacer. Thus, PCR primers were designed to amplify the genomic region in which the new spacer was present. Primers targeting a sequence upstream of the CRISPR-Cas region and targeting the second spacer region were designed, and PCR amplification was utilized to test for the presence of the new inserted spacer (a portion of the plasmid sequence inserted between the CRISPR locus and spacers). […]

CRISPR-Cas system = experiment: Transformation assay, efficiency of transformation (EOT); assay type: cell-based, P. aeruginosa PA14; details: ΔlasI ΔrhII mutant; both AIs added together
Protocol: Bacteria were grown to the appropriate OD600, washed twice at RT in 300 mM sucrose, and electroporated with 1 μg empty vector plasmid pHERD30T or pCR2SP1 containing a phage-derived sequence specifically targeted for degradation by CRISPR-Cas (Bondy-Denomy, Pawluk et al. 2013). 1 ml LB was added and the bacteria were grown 1 h at 37° C. with shaking, after which they were plated on selective medium, e.g., LB medium containing 50 μg/ml gentamicin, and incubated overnight at 37° C. Bacterial colonies were counted using Image Quant Las 4000 and Image Quant TL software (GE Healthcare). Colony forming units (CFU)/ml were quantified and the efficiency of transformation was calculated as the percentage of colonies transformed by pCR2SP1 compared to those transformed by the empty vector control pHERD30T.
This assay utilizes a plasmid as a proxy for a phage, to quantify the frequency with which a foreign genetic material is identified and targeted for degradation by the host bacterial immune system. For bacterial cells having a functional CRISPR-Cas system, the plasmid will be targeted for destruction, and no colonies will grow on the plate, as antibiotic resistance has been lost.
For cells lacking a CRISPR-Cas system or having an impaired or partially functioning CRISPR-Cas system, the electroporated plasmid evades destruction by the bacterial host and is able to replicate. […]

cas3 = cas3 expression by qRT-PCR; assay type: cell-based, Pseudomonas aeruginosa PA14; details: ΔlasI ΔrhII mutant; 100 μM 3-O—C12-HSL and 100 μM C4-HSL given together; normalized to 5S ribosomal RNA
Protocol: In one example protocol, P. aeruginosa PA14 and mutants were grown overnight at 37° C. with shaking in LB broth. Cultures were back diluted 1:100 and grown to the indicated OD600 in the presence or absence of DMSO, 3-O—C12-HSL, C4—HSL (Sigma) or Baicalein (Cayman Chemical) at the specified concentrations. LB was supplemented with 50 μg/ml Gentamicin where appropriate.
For Quantitative Real Time-PCR (qRT-PCR), bacteria were harvested at the indicated OD600. RNA was purified using Trizol (Ambion), DNAse treated using DNA-free (Ambion), cDNA was synthesized using SuperScript® III Reverse Transcriptase (Invitrogen) and quantified using PerfeCTa® SYBR® Green FastMix®, Low ROX (Quanta Biociences).
Quantitative Real Time-PCR (qRT-PCR) was utilized to determine the relative expression of cas3 in each of these mutant strains. Additionally, 100 μM 3-O—C12-HSL and 100 μM C4-HSL, which are AIs that rescue cas3 expression, were added to the cell culture comprising the mutant strain ΔlasI ΔrhII. It is understood that other concentrations of 3-O—C12-HSL and C4—HSL are also suitable, e.g., the concentrations may be in the range of 2 μM to 100 μM, from 10 μM to 100 μM or from 2 μM to 10 μM. In some embodiments, 2 μM of 3-O—C12-HSL and 10 μM of C4-HSL were used. The expression profiles for cas3 for each strain were then normalized based on expression of 5S ribosomal RNA. […]

Row | Compound | pyocyanin production [1] | CRISPR adaptation (fraction of cells in the colony that adapted) [2] | immune activity (efficiency of transformation) (CRISPR-Cas system) | cas3 expression (cas3)
1 | meta-bromothiolactone [mBTL] | inhibit pyocyanin production | – | – | –
2 | CCCC(=O)N[C@H]1CCOC1=O [Molecule C4-HSL, N-butyryl-L-homoserine lactone] | – | increased the fraction of cells in the colony that adapted | restored immune activity to nearly WT levels | restore cas3 expression to WT levels
3 | CCCCCCCCCC(=O)CC(=O)N[C@H]1CCOC1=O [3-O—C12-HSL] | – | increased the fraction of cells in the colony that adapted | restored immune activity to nearly WT levels | restore cas3 expression to WT levels
